Assay results: PubChem BioAssay AID248 (DTP/NCI, 2004)
Several values for one entry are separate records, joined by “and”; a condition that tells them apart may be missing. Equal entries are not always repeated. Inconclusive results and toxic doses are left out. Cut-off read from the data, not from the text of the source: active = T/C of 150% or more; inactive = T/C below 125%.

Tested on: L1210 leukemia ip in BDF1 mice, survival T/C
Assay: NCI In Vivo Anticancer Drug Screen. Data for tumor model L1210 Leukemia (intraperitoneal) in B6D2F1 (BDF1) mice
Details: higher = longer survival
In short: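 Read-out is survival time, reported as the treated-group measurement over the vehicle-control measurement.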

[1] = endpoint: mean survival time, dose: 100.0 mg/kg/injection, schedule: Q01DX009 (ip), vehicle: saline with Tween-80
[2] = endpoint: mean survival time, dose: 200.0 mg/kg/injection, schedule: Q01DX009 (ip), vehicle: saline with Tween-80
[3] = endpoint: mean survival time, dose: 400.0 mg/kg/injection, schedule: Q01DX009 (ip), vehicle: saline with Tween-80
[4] = endpoint: mean survival time, dose: 100.0 mg/kg/injection, schedule: Q01DX009 (ip), vehicle: saline
[5] = endpoint: mean survival time, dose: 100.0 mg/kg/injection, schedule: Q04DX003 (ip), vehicle: saline
[6] = endpoint: mean survival time, dose: 200.0 mg/kg/injection, schedule: Q01DX009 (ip), vehicle: saline
[7] = endpoint: mean survival time, dose: 200.0 mg/kg/injection, schedule: Q04DX003 (ip), vehicle: saline
[8] = endpoint: mean survival time, dose: 400.0 mg/kg/injection, schedule: Q01DX009 (ip), vehicle: saline
[9] = endpoint: mean survival time, dose: 400.0 mg/kg/injection, schedule: Q04DX003 (ip), vehicle: saline
[10] = endpoint: mean survival time, dose: 100.0 mg/kg/injection, schedule: Q01DX009 (ip), vehicle: Klucel (hydroxypropylcellulose) (HPC)
[11] = endpoint: mean survival time, dose: 200.0 mg/kg/injection, schedule: Q01DX009 (ip), vehicle: Klucel (hydroxypropylcellulose) (HPC)
[12] = endpoint: mean survival time, dose: 100.0 mg/kg/injection, schedule: Q04DX002 (ip), vehicle: Klucel (hydroxypropylcellulose) (HPC)
[13] = endpoint: mean survival time, dose: 400.0 mg/kg/injection, schedule: Q04DX002 (ip), vehicle: Klucel (hydroxypropylcellulose) (HPC)
[14] = endpoint: mean survival time, dose: 100.0 mg/kg/injection, schedule: Q04DX003 (ip), vehicle: saline with Tween-80
[15] = endpoint: mean survival time, dose: 200.0 mg/kg/injection, schedule: Q04DX003 (ip), vehicle: saline with Tween-80
[16] = endpoint: mean survival time, dose: 25.0 mg/kg/injection, schedule: Q01DX009 (ip), vehicle: saline
[17] = endpoint: mean survival time, dose: 50.0 mg/kg/injection, schedule: Q01DX009 (ip), vehicle: saline
[18] = endpoint: mean survival time, dose: 100.0 mg/kg/injection, schedule: Q01DX001 (ip), vehicle: saline
[19] = endpoint: mean survival time, dose: 200.0 mg/kg/injection, schedule: Q01DX001 (ip), vehicle: saline
[20] = endpoint: mean survival time, dose: 400.0 mg/kg/injection, schedule: Q01DX001 (ip), vehicle: saline

Measured: T/C

O=C(NC(=S)Nc1ccc([N+](=O)[O-])cc1Br)c1ccc(Cl)cc1Cl
inactive: [1] 89 % of control and 90 % of control | endpoint: mean survival time, dose: 100.0 mg/kg/injection, schedule: Q04DX002 (ip), vehicle: saline with Tween-80 87 % of control and 90 % of control | [2] 93 % of control and 90 % of control | endpoint: mean survival time, dose: 200.0 mg/kg/injection, schedule: Q04DX002 (ip), vehicle: saline with Tween-80 86 % of control and 92 % of control | [3] 93 % of control and 95 % of control | endpoint: mean survival time, dose: 400.0 mg/kg/injection, schedule: Q04DX002 (ip), vehicle: saline with Tween-80 104 % of control and 92 % of control

NC(Cc1cc(I)c(Oc2cc(I)c(O)c(I)c2)c(I)c1)C(=O)O (configuration not stated)
inactive: endpoint: median survival time, dose: 0.63 mg/kg/injection, schedule: Q01DX009 (ip), vehicle: saline 98 % of control | endpoint: median survival time, dose: 2.5 mg/kg/injection, schedule: Q01DX009 (ip), vehicle: saline 92 % of control | endpoint: median survival time, dose: 10.0 mg/kg/injection, schedule: Q01DX009 (ip), vehicle: saline 88 % of control | endpoint: median survival time, dose: 40.0 mg/kg/injection, schedule: Q01DX009 (ip), vehicle: saline 93 % of control

CC1(C)N=C(N)N=C(N)N1c1cccc(Cl)c1
inactive: endpoint: mean survival time, dose: 1.15 mg/kg/injection, schedule: Q01DX Z (ip), vehicle: carboxymethylcellulose (CMC) 98 % of control | endpoint: mean survival time, dose: 2.3 mg/kg/injection, schedule: Q01DX Z (ip), vehicle: carboxymethylcellulose (CMC) 97 % of control | endpoint: mean survival time, dose: 2.5 mg/kg/injection, schedule: Q01DX015 (ip), vehicle: saline 111 % of control | endpoint: mean survival time, dose: 4.6 mg/kg/injection, schedule: Q01DX Z (ip), vehicle: carboxymethylcellulose (CMC) 117 % of control | endpoint: mean survival time, dose: 5.0 mg/kg/injection, schedule: Q01DX015 (ip), vehicle: saline 114 % of control | endpoint: mean survival time, dose: 9.2 mg/kg/injection, schedule: Q01DX Z (ip), vehicle: carboxymethylcellulose (CMC) 108 % of control | endpoint: mean survival time, dose: 10.0 mg/kg/injection, schedule: Q01DX015 (ip), vehicle: saline 119 % of control | endpoint: mean survival time, dose: 40.0 mg/kg/injection, schedule: Q01DX015 (ip), vehicle: saline 114 % of control | endpoint: mean survival time, dose: 75.0 mg/kg/injection, schedule: Q01DX001 (ip), vehicle: acetone 111 % of control

O=C(O)CN(CC(=O)O)c1ccc(/C=C/c2ccc(N(CC(=O)O)CC(=O)O)c(S(=O)(=O)O)c2)cc1S(=O)(=O)O
inactive: [4] 100 % of control | [5] 112 % of control | [6] 105 % of control | [7] 100 % of control | [8] 103 % of control | [9] 100 % of control

CC(OC1CCCCO1)C1CCC2C3CCC4=CC(=O)CCC4(C)C3CCC12C (configuration not stated)
inactive: endpoint: mean survival time, dose: 50.0 mg/kg/injection, schedule: Q01DX001 (sc), vehicle: steriod suspending solution 103 % of control | endpoint: mean survival time, dose: 100.0 mg/kg/injection, schedule: Q01DX001 (sc), vehicle: steriod suspending solution 105 % of control | endpoint: mean survival time, dose: 200.0 mg/kg/injection, schedule: Q01DX001 (sc), vehicle: steriod suspending solution 103 % of control | endpoint: mean survival time, dose: 400.0 mg/kg/injection, schedule: Q01DX001 (sc), vehicle: steriod suspending solution 111 % of control

O=C(O)CC/C(=N/O)c1ccccc1
inactive: endpoint: mean survival time, dose: 50.0 mg/kg/injection, schedule: Q01DX009 (ip), vehicle: Klucel (hydroxypropylcellulose) (HPC) 93 % of control | [10] 98 % of control | [11] 92 % of control

Cc1ccc(NC(=O)Nc2ccc(Nc3ccccc3)cc2)c([N+](=O)[O-])c1
inactive: endpoint: mean survival time, dose: 100.0 mg/kg/injection, schedule: Q04DX003 (ip), vehicle: Klucel (hydroxypropylcellulose) (HPC) 94 % of control | endpoint: mean survival time, dose: 200.0 mg/kg/injection, schedule: Q04DX003 (ip), vehicle: Klucel (hydroxypropylcellulose) (HPC) 90 % of control | endpoint: mean survival time, dose: 400.0 mg/kg/injection, schedule: Q04DX003 (ip), vehicle: Klucel (hydroxypropylcellulose) (HPC) 90 % of control

CCOC(=O)COc1cc([N+](=O)[O-])c(Cl)cc1Cl
inactive: [12] 98 % of control | endpoint: mean survival time, dose: 200.0 mg/kg/injection, schedule: Q04DX002 (ip), vehicle: Klucel (hydroxypropylcellulose) (HPC) 98 % of control | [13] 98 % of control

CC(=O)OCc1ccc[n+](CCc2c[nH]c3ccccc23)c1
inactive: [14] 95 % of control | [15] 90 % of control

N[C@@H](Cc1ccc(O)c(O)c1)C(=O)O
inactive: [16] 101 % of control | endpoint: mean survival time, dose: 25.0 mg/kg/injection, schedule: Q04DX003 (ip), vehicle: saline 94 % of control | endpoint: mean survival time, dose: 50.0 mg/kg/injection, schedule: Q01DX001 (ip), vehicle: saline 87 % of control | [17] 100 % of control and 105 % of control | endpoint: mean survival time, dose: 50.0 mg/kg/injection, schedule: Q04DX003 (ip), vehicle: saline 103 % of control and 105 % of control | [18] 94 % of control | [4] 92 % of control and 97 % of control | [5] 110 % of control | [19] 113 % of control | [6] 97 % of control and 105 % of control | [7] 98 % of control and 105 % of control | [20] 94 % of control | [8] 108 % of control and 112 % of control | [9] 94 % of control and 97 % of control

O=C(Nc1ccc(F)cc1)Oc1ccc([N+](=O)[O-])cc1
inactive: [16] 106 % of control | [17] 100 % of control | [4] 97 % of control and 106 % of control | [6] 95 % of control | [8] 97 % of control

Cc1cc(C)c(CC(C)(CO)CO)c(C)c1CC(C)(CO)CO
inactive: [10] 107 % of control | [11] 98 % of control | endpoint: mean survival time, dose: 400.0 mg/kg/injection, schedule: Q01DX009 (ip), vehicle: Klucel (hydroxypropylcellulose) (HPC) 96 % of control

COc1nc(N)c(C#N)c(C#N)c1C#N
inactive: endpoint: mean survival time, dose: 15.0 mg/kg/injection, schedule: Q01DX001 (ip), vehicle: carboxymethylcellulose (CMC) 95 % of control | endpoint: mean survival time, dose: 30.0 mg/kg/injection, schedule: Q01DX001 (ip), vehicle: carboxymethylcellulose (CMC) 95 % of control

CCOC(=O)CNC(=O)C(CSCc1cccs1)NC(=O)OCc1ccccc1 (configuration not stated)
inactive: [1] 100 % of control | [2] 94 % of control | [3] 90 % of control

NC(=O)c1c2n(c3ncnc(N)c13)C1OC(CO)C(O)C1S2 (configuration not stated)
inactive: endpoint: mean survival time, dose: 25.0 mg/kg/injection, schedule: Q01DX009 (ip), vehicle: water 91 % of control | endpoint: mean survival time, dose: 50.0 mg/kg/injection, schedule: Q01DX009 (ip), vehicle: water 91 % of control

CCOC(=O)C1CC2(Cl)C(Cl)=C(Cl)C1(Cl)C2(Cl)Cl (configuration not stated)
inactive: [18] 98 % of control | [5] 94 % of control | [19] 93 % of control | [7] 94 % of control | [20] 98 % of control | [9] 93 % of control

CCCCCCCC(=O)Oc1ccc(C)cc1
inactive: endpoint: mean survival time, dose: 100.0 mg/kg/injection, schedule: Q01DX Z (ip), vehicle: carboxymethylcellulose (CMC) 103 % of control | endpoint: mean survival time, dose: 150.0 mg/kg/injection, schedule: Q01DX Z (ip), vehicle: carboxymethylcellulose (CMC) 106 % of control | endpoint: mean survival time, dose: 225.0 mg/kg/injection, schedule: Q01DX Z (ip), vehicle: carboxymethylcellulose (CMC) 97 % of control

CCN(CC)CCNC(=O)c1ccc2nc(N)sc2c1
inactive: endpoint: mean survival time, dose: 75.0 mg/kg/injection, schedule: Q01DX001 (ip), vehicle: saline 96 % of control | endpoint: mean survival time, dose: 150.0 mg/kg/injection, schedule: Q01DX001 (ip), vehicle: saline 91 % of control

COc1cc2c(cc1OC)C(=O)C(Br)N(S(=O)(=O)c1ccc(C)cc1)CC2 (configuration not stated)
inactive: [4] 96 % of control | [6] 97 % of control | [8] 93 % of control

CC1(c2ccc3ccccc3c2)OCC2(CCC2)CO1
inactive: [12] 97 % of control | [13] 107 % of control

NOCc1ccc(CON)cc1
inactive: [5] 95 % of control | [7] 97 % of control

O=C(N/N=C\c1ccc(Cl)cc1)c1ccccc1
inactive: [14] 99 % of control | [15] 100 % of control

Cc1ccc(S(=O)(=O)OCCC2=CCC3CC2C3(C)C)cc1 (configuration not stated)
inactive: endpoint: mean survival time, dose: 100.0 mg/kg/injection, schedule: Q04DX002 (ip), vehicle: saline 103 % of control | endpoint: mean survival time, dose: 200.0 mg/kg/injection, schedule: Q04DX002 (ip), vehicle: saline 95 % of control | endpoint: mean survival time, dose: 400.0 mg/kg/injection, schedule: Q04DX002 (ip), vehicle: saline 95 % of control
